# Data taken from PMC12194305, “Assessing Bioconcentration and Biotransformation of BDE-47 In Vitro: The Relevance of Bioavailable and Intracellular Concentrations” (Journal of Xenobiotics, 2025).
# Read-outs that look alike come from different tables or passages of the source.
# Tests used:
# Gammarus pulex = test system: Gammarus pulex; set-up: method as in PMID 24879528; conditions: 1 µg·L^−1; cited from earlier work
# ZFL cells [1] = test system: ZFL cells; set-up: method as in PMID 25544063; conditions: 10% FBS, cited from earlier work
# [2] = test system: zebrafish eleutheroembryos; set-up: method as in PMID 36705440; conditions: cited from earlier work
# young Psetta maxima = test system: young Psetta maxima; set-up: method as in doi:10.1007/s11270-014-2072-0; conditions: cited from earlier work
# zebrafish = test: IVIVE-BCF model with zebrafish default parameters; assay type: in vitro ADME; conditions: k1 and k2 from experimental Ccell and Cfree
# ZFL cells [3] = test: Substrate depletion in ZFL cells, inputs of the IVIVE-BCF model; assay type: in vitro ADME, zebrafish
# Text: One of the objectives was to assess whether cell lines can be used within the BCF-IVIVE model, relying on intrinsic clearance in vitro, to estimate the biotransformation rate which is subsequently extrapolated to adult fish. This approach is based on the model developed by Nichols et al. and is endorsed by the OECD guideline 319A [10] and OECD 2018a. Briefly, the log10-transformed substrate experimental concentrations in the medium (Cmed) were plotted against time, and the first-order elimination rate constant (ke, h^−1) was determined as −2.3 × slope of the log-linear decline. Black et al. indicate that a correction to the elimination rate constant (ke) should be applied when the following conditions are met: (i) abiotic losses from volatilization, calculated by comparing the recovery of negative control samples (“no cells”) at each exposure time to the initial time, fall outside the acceptable range of 80–120%, (ii) the loss process follows first order kinetics, and (iii) the ratio of ke and the volatilization rate constant (kvolat) is below 10 (ke/kvolat < 10). Then, the constant corrected for losses due to volatilization (ke,loss) was determined as −2.3 × the difference of the slopes of the sample and the loss control of the log-linear descent. The in vitro constant was then extrapolated to obtain an in vivo metabolization constant (kMET). This was done using experimental cell concentration (CHEP, 10^6 cells/mL) and default parameters derived from rainbow trout. In this study, in addition to estimating BCF with the official model parameters derived from rainbow trout (BCFIVIVE,RT), BCF was also estimated with the literature-derived parameters for zebrafish (BCFIVIVE,ZF), due to the use of ZFL cells. Finally, the BCF was estimated by the ratio of concentration in the organism to concentration in the medium, following the standardized model. […]
# ZFL cells [4] = test: Mass balance model (MBM) prediction of Cfree and Ccell; set-up: species or system zebrafish
# Description: Ccell and Cfree were determined for the BDE-47 using Fisher et al.’s mass balance model (MBM). In brief, the test system parameters for the experiment (Table S3) and BDE-47 distribution parameters (Table S4) estimated by the UFZ-LSER Calculation Partition System tool were first entered into the MBM spreadsheet. Although this model includes preset parameters for various cell lines, the input fields for cell-line type and culture medium were left empty for ZFL, and generic parameters were applied instead. Then, data for fractions of cell (fcell), total medium (fmedium), cell membrane (fmem) and the water phase of the medium (fw,medium) compartment were output (Table S5) and applied to each experimentally determined BDE-47 Cmedium to estimate the Cfree, MBM and Ccell, MBM at each exposure time.
# [5] = test system: Mytilus galloprovincialis (mussel); conditions: cited from earlier work
# ZFL cells [6] = test: Cell viability by MTT assay; assay type: cell-based, zebrafish; conditions: 72 h
# Description: Cell viability was determined by MTT assay. A total of 10,000 cells/well were seeded in 96-well plates under culture conditions for 24 h. Then, the culture medium was replaced by contaminated medium (200 µL) with range of concentrations of BDE-47 (0.2–10 mg·L^−1). Three independent replicates with the same experimental conditions, a control group (cells without pollutant) and a blank group (only cell culture medium) were performed. After 72 h, 20 µL of MTT solution (5 mg·mL^−1) was added to provide a final concentration of 0.5 mg·mL^−1 and incubated for 4 h. Formazan produced in the MTT assay was dissolved using 100 μL DMSO, and absorbance was recorded at 595 nm. The results have been subsequently used for the design of the bioaccumulation and biotransformation experiment.
smiles,measurement,setting,value
"Brc1ccc(Oc2ccc(Br)cc2Br)c(Br)c1 [BDE-47, 2,2′,4,4′-tetrabromodiphenyl ether]",BCFk,Gammarus pulex,~5000 L/kg
same,LC50 (24 h),ZFL cells [1]; 24 h,1.60 µg/mL
same,LC50 (96 h),ZFL cells [1]; 96 h,1.26 µg/mL
same,BCF48 h,"[2]; 1 µg·L^−1, zebrafish larvae","16,392 L·kg^−1"
same,BCFk,"[2]; 1 µg·L^−1, zebrafish larvae","36,363 L·kg^−1"
same,BCF48 h,"[2]; 10 µg·L^−1, zebrafish larvae",4106 L/kg
same,BCFk,"[2]; 10 µg·L^−1, zebrafish larvae",7295 L/kg
same,BCFk,young Psetta maxima; 0.001 µg·L^−1,"33,103 L·kg^−1"
same,BCFk,young Psetta maxima; 0.1 µg·L^−1,"15,531 L·kg^−1"
same,BCFk,young Psetta maxima; 1 µg·L^−1,"24,125 L·kg^−1"
same,"BCFIVIVE, ZF, exp",zebrafish; Cnominal 1.8 mg·L^−1,"22,614 L·kg^−1"
same,"BCFIVIVE, ZF, exp",zebrafish; Cnominal 2.6 mg·L^−1,"38,948 L·kg^−1"
same,"ke,loss","ZFL cells [3]; Experiment 1.8 mg·L-1, corrected for volatilization losses",0.012 h⁻¹
same,"ke,loss","ZFL cells [3]; Experiment 2.6 mg·L-1, corrected for volatilization losses",0.002 h⁻¹
same,"Cw, TOT (Cfree,exp)","ZFL cells [3]; Experiment 2.6 mg·L-1, input parameter",0.0016 mg/L
same,Ratio MBM/experimental of internal concentration,"ZFL cells [4]; 24h, 1.8 mg·L-1, ZFL cells",51%
same,Ratio MBM/experimental of internal concentration,"ZFL cells [4]; 24h, 2.6 mg·L-1, ZFL cells",73%
same,Ratio MBM/experimental of internal concentration,"ZFL cells [4]; 48h, 1.8 mg·L-1, ZFL cells",44%
same,Ratio MBM/experimental of internal concentration,"ZFL cells [4]; 48h, 2.6 mg·L-1, ZFL cells",78%
same,Ratio MBM/experimental of internal concentration,"ZFL cells [4]; 72h, 1.8 mg·L-1, ZFL cells",36%
same,Ratio MBM/experimental of internal concentration,"ZFL cells [4]; 72h, 2.6 mg·L-1, ZFL cells",66%
same,BCFk,[5]; 0.31 ng·L^−1,"26,000 L·kg^−1"
same,BCFk,[5]; 8 µg·L^−1,"10,900 L·kg^−1"
same,LC30 after applying percentage of Cfree,ZFL cells [6]; bioavailable concentration,0.00055 µg/mL
same,concentration decreasing viability by 30% (LC30),"ZFL cells [6]; nominal concentration, 10% FBS",0.45 µg/mL
same,concentration decreasing viability by 50% (LC50),"ZFL cells [6]; nominal concentration, 10% FBS",2.03 µg/mL
